Measurements taken from US20130040882A1, “USE OF FIBROBLAST GROWTH FACTOR FRAGMENTS” (NOVARTIS AG, priority 2003, published 2013).
Several values for one entry are separate records, joined by “and”; a condition that tells them apart may be missing. Equal entries are not always repeated.

Tested on: transcript levels in tissues (GH/IGF and glucagon/insulin axes, SSTR signalling)
Assay type: in vivo, cynomolgus monkeys
[1] = pituitary, 0.1 mg/animal/14 day, control 72
[2] = pituitary, 0.1 mg/animal/14 day, control 91
[3] = pituitary, 0.1 mg/animal/14 day, control 198
[4] = pituitary, 0.1 mg/animal/14 day, control 225

In the case of “cyclo[4-(NH2—C2H4—NH—CO—O)Pro-Phg-DTrp-Lys-Tyr(4-Bzl)-Phe] [SOM230]”, the “ATPase, H+/K+ exchanging, beta polypeptide expression ↓ (fold change)” value (liver) is reported as “polypeptide ↓ x2”, the “Adenylyl cyclase-associated protein expression ↑ (fold change)” value (liver) is reported as “↑ x1.5” and the “Arginine vasopressine receptor 2 expression ↑ (fold change)” value (liver) is reported as “receptor 2 ↑ x2.5”. The “B lymphoid tyrosine kinase expression ↑ (fold change)” value (liver) was “↑ x3.5”, the “BCL2-like 1 expression ↓ (fold change)” value (liver) was “↓ x3.5” and the “Bone-derived GF expression ↑ (fold change)” value (liver) was “↑ x3”. The “Bruton agammaglobulinemia a tyrosine kinase expression ↑ (fold change)” value (liver) was “↑ x1.5”, the “Butyrate response factor 2 (EGF-response factor 2) expression ↑ (fold change)” value (liver) was “x2” and the “Ca++ channel, voltage-dependent, P/Q type, alpha 1A subunit expression ↓ (fold change)” value (liver) was “subunit ↓ x2.5”. The “Calcium/calmodulin-dependent protein kinase kinase 2, β expression ↑ (fold change)” value (liver) was “↑ x3”, the “Calmodulin 2 (phosphorylase kinase, δ) expression ↑ (fold change)” value (liver) was “kinase, δ) ↑ x2” and the “Cdk 5, regulatory subunit 1 expression ↑ (fold change)” value (liver) was “subunit 1 ↑ x2.5”. For the same substance, the “Cdk like-2 expression ↓ (fold change)” value (liver) was “x2”, the “Cdki1A (p21/Cip1) expression ↑ (fold change)” value (liver) was “(p21/Cip1) ↑ x6” and the “Cdki 2D (p19, inhibits CDK4) expression ↓ (fold change)” value (liver) was “↓ x2.5”. The “Corticosteroid binding globulin precursor expression ↑ (fold change)” value (liver) was “precursor ↑ x2”, the “DAG kinase, α (80 kD) expression ↑ (fold change)” value (liver) was “(80 kD) ↑ x3” and the “DAG kinase, δ (130 kD) expression ↑ (fold change)” value (liver) was “(130 kD) ↑ x1.5”. The “Death-associated protein 6 expression ↓ (fold change)” value (liver) was “↓ x2.5”, the “Dopamine receptor D2 expression ↑ (fold change)” value (liver) was “receptor D2 ↑ x3.5” and the “Dopamine receptor D3 expression ↑ (fold change)” value (liver) was “receptor D3 ↑ x2”. The “EGF (β-urogastrone) expression ↓ (fold change)” value (liver) was “urogastrone) ↓ x2.5”, the “EGF-like repeats and discoidin I-like domains 3 expression ↓ (fold change)” value (liver) was “domains 3 ↓ x1.5” and the “EGFR (avian erythroblastic leukemia viral (v-erb-b) oncogene homolog) expression ↑ (fold change)” value (liver) was “homolog) ↑ x2”. The “FGFR 2 (bacteria-expressed kinase, keratinocyte growth factor receptor, craniofacial dysplasia) expression ↑ (fold change)” value (liver) was “dysplasia) ↑ x2”, the “Fas-activated serine/threonine kinase expression ↑ (fold change)” value (liver) was “kinase ↑ x1.5” and the “Fms-related tyrosine kinase 1(VEGF/vascular permeability factor receptor) expression ↓ (fold change)” value (liver) was “receptor) ↓ x1.5”. The “GABA (A) receptor, γ2 precursor expression ↑ (fold change)” value (liver) was “precursor ↑ x4”, the “GABA(A) receptor-associated protein expression ↑ (fold change)” value (liver) was “protein ↑ x1.5” and the “GCSF expression ↑ (fold change)” value (liver) was “GCSF ↑ x3.5”. For the same substance, the “GFR-bound protein 2 expression ↓ (fold change)” value (liver) was “protein 2 ↓ x2.5”, the “Gene expression (AvgDiff): GR” value (liver) was 80 and the “Gene expression (AvgDiff): IGF-2” value (liver) was 269. The “Gene expression (AvgDiff): IGFBP2” value (liver) was 4,476, the “Gene expression (AvgDiff): Insulin promoter factor 1, homeodomain transcription factor” value (liver) was 42 and the “Glucacon receptor expression ↑ (fold change)” value (liver) was “↑ x5”. The “Glutamate receptor, metabotropic 4 expression ↑ (fold change)” value (liver) was “↑ x1.5”, the “Glycosylphosphatidylinositol specific phospholipase D1 expression ↓ (fold change)” value (liver) was “↓ x1.5” and the “Growth differentiation factor 1 expression ↑ (fold change)” value (liver) was 1 ↑ x3. The “IFN regulatory factor 5 expression ↑ (fold change)” value (liver) was “factor 5 ↑ x2.5”, the “IFN-induced leucine zipper protein expression ↑ (fold change)” value (liver) was “protein ↑ x1.5” and the “IFN-inducible RNA-dependent protein kinase expression ↑ (fold change)” value (liver) was “protein kinase ↑ x4”. For the same substance, the “IFN-related developmental regulator 2 expression ↓ (fold change)” value (liver) was “regulator 2 ↓ x1.5”, the “IFN-stimulated protein, 15 kDa expression ↓ (fold change)” value (liver) was “protein, 15 kDa ↓ x2” and the “IFNγ responsive transcript expression ↑ (fold change)” value (liver) was “transcript ↑ x1.5”. The “IGF-2 expression ↓ (fold change)” value (liver) was “IGF-2 ↓ x2.5”, the “IGFBP2 expression ↑ (fold change)” value (liver) was “IGFBP2 ↑ x2” and the “IL2 R, γ chain, precursor expression ↑ (fold change)” value (liver) was “precursor ↑ x2.5”. The “IP 5-phosphatase expression ↑ (fold change)” value (liver) was “↑ x2”, the “Insulin promoter factor 1, homeodomain transcription factor expression ↓ (fold change)” value (liver) was “↓ x1.5” and the “Natriuretic peptide receptor A/guanylate cyclase A (atrionatriuretic peptide receptor A) expression ↑ (fold change)” value (liver) was “↑ x6”. The “Nck, Ash and PLC γ binding protein NAP4 expression ↑ (fold change)” value (liver) was “NAP4 ↑ x3.5”, the “PDGF, α polypeptide expression ↑ (fold change)” value (liver) was “polypeptide ↑ x1.5” and the “PDGFR, α polypeptide expression ↑ (fold change)” value (liver) was “polypeptide ↑ x2”. For the same substance, the “PI transfer protein expression ↑ (fold change)” value (liver) was “↑ x3.5”, the “PI transfer protein, β expression ↓ (fold change)” value (liver) was “β ↓ x1.5” and the “PKC substrate 80K-H expression ↑ (fold change)” value (liver) was 80K-H ↑ x1.5. For the same substance, the “PKC, ι expression ↓ (fold change)” value (liver) was “PKC, ι ↓ x1.5”, the “PLA2, group IIA (platelets, synovial fluid) expression ↑ (fold change)” value (liver) was “fluid) ↑ x5.5” and the “PLC, γ1 (formerly subtype 148) expression ↑ (fold change)” value (liver) was “subtype 148) ↑ x2”. For the same substance, the “Rb 1 (including osteosarcoma) expression ↓ (fold change)” value (liver) was “↓ x2”, the “Rb binding protein expression ↑ (fold change)” value (liver) was “↑ x2.5” and the “Rb-like 2 (p130) expression ↑ (fold change)” value (liver) was “x3”. The “Receptor (calcitonin) activity modifying protein 1 precursor expression ↑ (fold change)” value (liver) was “precursor ↑ x1.5”, the “Solute carrier family 9 (sodium/hydrogen exchanger), isoform 3 regulatory factor 1 expression ↑ (fold change)” value (liver) was “↑ x11.5” and the “Solute carrier family 11 (Na+/phosphate symporters), member 1 expression ↑ (fold change)” value (liver) was “member 1 ↑ x2.5”. For the same substance, the “TGF, β1 expression ↓ (fold change)” value (liver) was “TGF, β1 ↓ x1.5”, the “TGFβ activated kinase-binding protein 1 expression ↑ (fold change)” value (liver) was “protein 1 ↑ x2.5” and the “TGFβR III (betaglycan, 300kδ) expression ↓ (fold change)” value (liver) was “↓ x2”. For the same substance, the “THR interacting protein 15 expression ↑ (fold change)” value (liver) was “protein 15 ↑ x1.5”, the “THR sulfo transferase expression ↑ (fold change)” value (liver) was “transferase ↑ x2.5” and the “TNF (ligand) superfamily, member 10 expression ↑ (fold change)” value (liver) was “member 10 ↑ x1.5”. The “TNF-α converting enzyme expression ↓ (fold change)” value (liver) was “enzyme ↓ x2”, the “δ sleep inducing peptide, immunoreactor expression ↑ (fold change)” value (liver) was “↑ x2.5” and the “PP 1, regulatory (inhibitor) subunit 5 AvgDiff” value (pituitary, 0.1 mg/animal/14 day, control 20) was 75. The “SSTR3 AvgDiff” value (pituitary, 0.1 mg/animal/14 day, control 22) was 57, the “Cell division cycle 25B AvgDiff” value (pituitary, 0.1 mg/animal/14 day, control 40) was 162 and the “GLUR 2, precursor AvgDiff” value (pituitary, 0.1 mg/animal/14 day, control 42) was 59. For the same substance, the “BCL2-antagonist of cell death AvgDiff” value (pituitary, 0.1 mg/animal/14 day, control 44) was 69, the “PTP, receptor type, T AvgDiff” value (pituitary, 0.1 mg/animal/14 day, control 58) was 101 and the “Putative Ca++ transporting ATPase AvgDiff” value (pituitary, 0.1 mg/animal/14 day, control 61) was 101. For the same substance, the “K+ voltage-gated channel, Shab-related subfamily, member 1 AvgDiff” value (pituitary, 0.1 mg/animal/14 day, control 66) was 22, the “PI-3-kinase, catalytic, α polypeptide AvgDiff” value [1] was 21 and the “RAB 5C, member RAS oncogene family AvgDiff” value [1] was 162. For the same substance, the “Cdk inhibitor 2C (p18, inhibits CDK4) AvgDiff” value (pituitary, 0.1 mg/animal/14 day, control 81) was 184, the “ATPase, Na+/K+ transporting, α 2 (+) polypeptide AvgDiff” value (pituitary, 0.1 mg/animal/14 day, control 86) was 184 and the “PI-3-kinase, catalytic, δ polypeptide AvgDiff” value [2] was 34. For the same substance, the “S-phase response (cyclin-related) AvgDiff” value [2] was 129, the “PLC, γ 1 (formerly subtype 148) AvgDiff” value (pituitary, 0.1 mg/animal/14 day, control 111) was 40 and the “SHB adaptor protein (a Src homology 2 protein) AvgDiff” value (pituitary, 0.1 mg/animal/14 day, control 112) was 38. The “PI transfer protein, β AvgDiff” value (pituitary, 0.1 mg/animal/14 day, control 125) was 42, the “ATPase, H+/K+ exchanging, α polypeptide AvgDiff” value (pituitary, 0.1 mg/animal/14 day, control 128) was 20 and the “Phosphatase and tensin homolog (mutated in multiple advanced cancers 1) AvgDiff” value (pituitary, 0.1 mg/animal/14 day, control 129) was 36. For the same substance, the “K+ channel, subfamily K, member 3 (TASK) AvgDiff” value (pituitary, 0.1 mg/animal/14 day, control 132) was 26, the “Rab geranylgeranyltransferase, α subunit AvgDiff” value (pituitary, 0.1 mg/animal/14 day, control 164) was 104 and the “MAPKKK5 AvgDiff” value (pituitary, 0.1 mg/animal/14 day, control 171) was 278. For the same substance, the “Neuroblastoma-amplified protein AvgDiff” value (pituitary, 0.1 mg/animal/14 day, control 178) was 237, the “Cyclin D3 AvgDiff” value (pituitary, 0.1 mg/animal/14 day, control 187) was 338 and the “Cdk inhibitor 2D (p19, inhibits CDK4) AvgDiff” value [3] was 99. The “Cyclin F AvgDiff” value [3] was 74, the “BCL2-associated athanogene AvgDiff” value (pituitary, 0.1 mg/animal/14 day, control 216) was 318 and the “Core-binding factor, runt domain, α subunit 2; translocated to, 1; cyclin D-related AvgDiff” value [4] was 491. The “Forkhead box H1 AvgDiff” value [4] was 117, the “Rab geranygeranyltransferase, β subunit AvgDiff” value (pituitary, 0.1 mg/animal/14 day, control 230) was 284 and the “Bax gamma AvgDiff” value (pituitary, 0.1 mg/animal/14 day, control 258) was 326. For the same substance, the “ATPase, Na+/K+ transporting, β 3 polypeptide AvgDiff” value (pituitary, 0.1 mg/animal/14 day, control 292) was 610, the “IP-4-phosphatase, type 1, isoform b AvgDiff” value (pituitary, 0.1 mg/animal/14 day, control 296) was 177 and the “BCL2/adenovirus E1B 19kD-interacting protein 3 AvgDiff” value (pituitary, 0.1 mg/animal/14 day, control 342) was 458. The “Dual specificity phosphatase 8 AvgDiff” value (pituitary, 0.1 mg/animal/14 day, control 493) was 170, the “Forkhead box O3A AvgDiff” value (pituitary, 0.1 mg/animal/14 day, control 497) was 257 and the “Programmed cell death 6 AvgDiff” value (pituitary, 0.1 mg/animal/14 day, control 504) was 635. The “PKC inhibitor AvgDiff” value (pituitary, 0.1 mg/animal/14 day, control 2,351) was 3,333 and 3,332, the “ATPase, Na+/K+ transporting, β1 polypeptide expression ↑ (fold change)” value (spleen) was “polypeptide ↑ x2.5” and the “Adrenergic, α-2C-, receptor expression ↓ (fold change)” value (spleen) was “↓ x2”. The “Arginine vasopressine receptor 1B expression ↑ (fold change)” value (spleen) was “receptor 1B ↑ x2”, the “Bcl-2 binding component 3 expression ↑ (fold change)” value (spleen) was “↑ x2.5” and the “Ca++ channel, voltage-dependent, α2/δ subunit 1 expression ↑ (fold change)” value (spleen) was “α2/δ subunit 1 ↑ x2”. For the same substance, the “Ca++ channel, voltage-dependent, α2/δ subunit 2 expression ↑ (fold change)” value (spleen) was “↑ x1.5”.
